Data as given in PubChem BioAssay (NCI).
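Five compound concentrations were applied to cells in 96-well plates for 48 hours; endpoints were derived by simple linear interpolation of the resulting dose-response curve. TGI marks complete inhibition of growth.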

What was measured:
Test in all cases: NCI anticancer screen, dose series, 48 h
786-0 renal = system: 786-0 renal
CAKI-1 renal = system: CAKI-1 renal
EKVX NSCLC = system: EKVX NSCLC
HCT-116 colon = system: HCT-116 colon
HOP-92 NSCLC = system: HOP-92 NSCLC
IGROV1 ovarian = system: IGROV1 ovarian
LOX IMVI melanoma = system: LOX IMVI melanoma
M14 melanoma = system: M14 melanoma
NCI-H522 lung = system: NCI-H522 lung
PC-3 prostate = system: PC-3 prostate
RXF 393 renal = system: RXF 393 renal
SNB-19 CNS = system: SNB-19 CNS
SNB-75 CNS = system: SNB-75 CNS
SR leukemia = system: SR leukemia
T-47D breast = system: T-47D breast
TK-10 renal = system: TK-10 renal
UACC-257 melanoma = system: UACC-257 melanoma
CCRF-CEM leukemia = system: CCRF-CEM leukemia
MCF7 breast = system: MCF7 breast
SF-539 CNS = system: SF-539 CNS

Row | SMILES | TGI (786-0 renal) [µM] | TGI (CAKI-1 renal) [µM] | TGI (EKVX NSCLC) [µM] | TGI (HCT-116 colon) [µM] | TGI (HOP-92 NSCLC) [µM] | TGI (IGROV1 ovarian) [µM] | TGI (LOX IMVI melanoma) [µM] | TGI (M14 melanoma) [µM] | TGI (NCI-H522 lung) [µM] | TGI (PC-3 prostate) [µM] | TGI (RXF 393 renal) [µM] | TGI (SNB-19 CNS) [µM] | TGI (SNB-75 CNS) [µM] | TGI (SR leukemia) [µM] | TGI (T-47D breast) [µM] | TGI (TK-10 renal) [µM] | TGI (UACC-257 melanoma) [µM] | TGI (CCRF-CEM leukemia) [µM] | TGI (MCF7 breast) [µM] | TGI (SF-539 CNS) [µM]
1 | N/C(CC/C(N)=N\O)=N\O | > 100 | > 100 | > 100 | > 100 | > 100 | > 100 | > 100 | > 100 | > 100 | > 100 | > 100 | > 100 | > 100 | > 100 | > 100 | > 100 | > 100 | – | – | –
2 | COc1ccc(-n2c(CCCC(=O)O)nc3c2C(=O)c2ccccc2C3=O)cc1 | > 100 | > 100 | > 100 | > 100 | > 100 | > 100 | > 100 | 39 | > 100 | – | – | > 100 | > 100 | > 100 | > 100 | > 100 | > 100 | > 100 | > 100 | > 100
3 | O=c1cnn(C2OC(CO)C(O)C(F)C2O)c(=O)[nH]1 (centres undefined) | > 100 | > 100 | > 100 | > 100 | > 100 | > 100 | > 100 | > 100 | > 100 | > 100 | – | > 100 | – | > 100 | > 100 | > 100 | > 100 | > 100 | > 100 | > 100
4 | COc1ccc(NC(=S)NN=C(C)c2cccc(C(C)=NNC(=S)Nc3ccc(OC)cc3)n2)cc1 | > 100 | > 100 | > 100 | > 100 | > 100 | > 100 | > 100 | > 100 | > 100 | > 100 | > 100 | > 100 | > 100 | > 100 | > 100 | > 100 | > 100 | > 100 | – | > 100
5 | Oc1ccc(-c2cc(-c3c(O)cc(O)cc3O)on2)cc1 | > 100 | > 100 | > 100 | > 100 | – | > 100 | > 100 | > 100 | > 100 | > 100 | – | > 100 | > 100 | > 100 | > 100 | > 100 | > 100 | > 100 | > 100 | > 100
6 | C/C(=N\Nc1nc2cc(C)ccc2s1)c1ccccn1 | 9.59 | 9.18 | > 21 | – | 10.3 | – | 3.68 | 3.68 | > 19.9 | > 23.1 | > 22.9 | 21.2 | 22.7 | > 21.8 | > 89.7 | > 64 | > 100 | > 100 | – | 41.2
7 | C[N+]1(C)C2Cc3ccccc3C1Cc1ccccc12 | > 100 | – | > 100 | > 100 | > 100 | > 100 | > 100 | > 100 | > 100 | > 100 | > 100 | > 100 | – | – | > 100 | > 100 | > 100 | > 100 | > 100 | > 100
8 | COc1ccc2c(c1O)-c1c(OC)c(OC)cc3c1[C@H](C2)[N+](C)(C)CC3 | > 100 | > 100 | > 100 | > 100 | > 100 | > 100 | > 100 | > 100 | > 100 | > 100 | – | > 100 | > 100 | – | > 100 | > 100 | > 100 | > 100 | > 100 | > 100
9 | COc1ccc(C[C@@H]2CN(C(=O)c3ccccc3)[C@H](Cc3ccc(O)cc3)CN2C(=O)c2ccccc2)cc1Br | > 100 | > 100 | > 100 | > 100 | > 100 | > 100 | > 100 | > 100 | – | > 100 | – | > 100 | > 100 | > 100 | > 100 | > 100 | > 100 | > 100 | > 100 | > 100
10 | CN1CC(c2ccccc2)=Cc2c1ccc(N)c2N=N | > 100 | 67.9 | > 100 | > 100 | – | > 100 | > 100 | > 100 | > 100 | > 100 | – | > 100 | > 100 | > 100 | > 100 | > 100 | > 100 | > 100 | > 100 | > 100
11 | COc1cc2c(cc1OC)C(=O)N(c1ccc(O)cc1)C2 | > 100 | > 100 | > 100 | > 100 | > 100 | > 100 | > 100 | > 100 | > 100 | > 100 | > 100 | > 100 | – | > 100 | > 100 | > 100 | > 100 | > 100 | – | > 100
12 | Cc1c(C)c(C)c(-n2c(=O)n(C)c(=O)n2C(C)(C)C)c(C)c1C | > 100 | > 100 | – | > 100 | > 100 | – | > 100 | > 100 | – | > 100 | > 100 | > 100 | > 100 | > 100 | > 100 | > 100 | > 100 | > 100 | > 100 | > 100
13 | NC1=CN(CCCO)C2=N/C(=C\c3ccco3)C(=O)N12 | > 100 | > 100 | > 100 | > 100 | > 100 | > 100 | > 100 | > 100 | > 100 | > 100 | > 100 | > 100 | > 100 | – | > 100 | > 100 | > 100 | > 100 | > 100 | > 100
14 | CCOC(=O)c1ccc(NC2Oc3cc4c(cc3C(c3cc(OC)c(OC)c(OC)c3)C2C)OCO4)cc1 (centres undefined) | 46.6 | 0.786 | > 100 | > 51.7 | 32.2 | > 51 | 32.9 | > 50.9 | 10.6 | > 100 | 93.9 | > 100 | 0.704 | – | > 100 | 99.5 | > 100 | > 20.3 | > 48.5 | 0.878
15 | O=C1CC(NC(=O)C(F)(F)F)c2c(Br)sc(N3CCC(c4ccccc4)CC3)c21 (centres undefined) | > 100 | 43.8 | > 100 | > 100 | 41.1 | > 100 | > 100 | > 100 | > 100 | > 100 | 88.3 | 78.2 | > 100 | – | 55.4 | 97.7 | 82.4 | > 100 | > 100 | > 100
16 | N#CI1OC(=O)c2ccccc21 | > 100 | > 100 | > 100 | > 100 | – | > 100 | > 100 | > 100 | 55.6 | > 100 | > 100 | – | > 100 | > 100 | > 100 | > 100 | > 100 | > 100 | > 100 | > 100
17 | C=C(NC(=O)C(=C)NC(=O)c1csc(C2=NC3c4csc(n4)C4NC(=O)c5csc(n5)C(C(C)(O)C(C)O)NC(=O)C5CSC(=N5)/C(=C/C)NC(=O)C(C(C)O)NC(=O)c5csc(n5)C3(CC2)NC(=O)C(C)NC(=O)C(=C)NC(=O)C(=C)NC(=O)C(C(C)C)NC2C=Cc3c(C(C)O)cc(nc3C2O)C(=O)OC4C)n1)C(N)=O (centres undefined) | 11.3 | > 87.2 | > 100 | 2.64 | 40.1 | 58.9 | > 61.3 | > 28.5 | 0.322 | > 100 | – | 65.4 | > 100 | – | 25 | > 94.8 | 18.7 | 6.8 | > 26 | –
18 | O=C(C=P(c1ccccc1)(c1ccccc1)c1ccccc1)C12CC3CC(CC(C3)C1)C2 | 33.4 | 33.6 | 29.3 | 29.4 | 43.2 | 30.8 | 41.5 | 32.7 | 20.6 | 24 | – | 27 | 33.3 | > 100 | 38.2 | 24.4 | 32.8 | 32.7 | 35.8 | 37
19 | N#Cc1[nH]c(=O)n(-c2ccc([N+](=O)[O-])cc2)c1N | > 10 | – | > 10 | > 10 | > 10 | > 10 | > 10 | > 10 | > 10 | > 10 | > 10 | > 10 | > 10 | > 10 | > 10 | > 10 | > 10 | > 10 | – | > 10
20 | Cc1ncc([N+](=O)[O-])n1CCN(C)CCCCn1ccnc1[N+](=O)[O-] | > 100 | > 100 | > 100 | > 100 | – | – | > 100 | > 100 | – | > 100 | > 100 | > 100 | > 100 | > 100 | > 100 | > 100 | > 100 | > 100 | > 100 | > 100
21 | NCCC1(N)CCNCC1 | > 100 | > 100 | > 100 | > 100 | > 100 | > 100 | – | > 100 | > 100 | > 100 | > 100 | > 100 | > 100 | > 100 | > 100 | > 100 | > 100 | > 100 | – | > 100
22 | COC(=O)OC[C@H]1O[C@@H](n2cc(C)c(=O)[nH]c2=O)CC1OC(=O)OC (some centres undefined) | > 100 | – | > 100 | – | – | > 100 | > 100 | > 100 | > 100 | > 100 | > 100 | > 100 | > 100 | > 100 | > 100 | > 100 | – | > 100 | > 100 | > 100
23 | COC(=O)C(=O)C(C(=O)C(=O)Nc1ccccc1C(=O)OC)c1nc2ccc(C(=O)c3ccccc3)cc2[nH]c1=O (centres undefined) | > 100 | > 100 | > 100 | > 100 | > 100 | > 100 | > 100 | > 100 | > 100 | > 100 | > 100 | – | > 100 | – | > 100 | > 100 | > 100 | – | > 100 | > 100
24 | Oc1c(OCc2nnc(CCCCCCCCc3nnc(COc4ccc5ccccc5c4O)n3Nc3ccccc3)n2Nc2ccccc2)ccc2ccccc12 | 27.4 | 13.8 | 31.6 | 24.8 | 32.3 | 31.5 | – | 10.9 | 27.3 | 19.2 | 30.9 | 29.8 | 35.5 | – | > 100 | > 64.7 | 25.7 | – | 68.1 | 20
25 | COc1ccc(-n2sc3ncc(-c4ccccc4)cc3c2=O)cc1 | 39.3 | 67.3 | > 100 | 57.8 | > 100 | 78.8 | > 100 | > 100 | – | > 100 | > 100 | 80.8 | > 100 | – | > 100 | > 100 | > 100 | > 100 | > 100 | –
